Results from ChEMBL document CHEMBL1145789, “Benzoylalanine-derived ketoamides carrying vinylbenzyl amino residues: discovery of potent water-soluble calpain inhibitors with oral bioavailability” (J Med Chem, 2003).

Biological target: T1, Calpain-1 catalytic subunit (Homo sapiens, UniProt P07384)
T1 sequence (P07384 whole entry): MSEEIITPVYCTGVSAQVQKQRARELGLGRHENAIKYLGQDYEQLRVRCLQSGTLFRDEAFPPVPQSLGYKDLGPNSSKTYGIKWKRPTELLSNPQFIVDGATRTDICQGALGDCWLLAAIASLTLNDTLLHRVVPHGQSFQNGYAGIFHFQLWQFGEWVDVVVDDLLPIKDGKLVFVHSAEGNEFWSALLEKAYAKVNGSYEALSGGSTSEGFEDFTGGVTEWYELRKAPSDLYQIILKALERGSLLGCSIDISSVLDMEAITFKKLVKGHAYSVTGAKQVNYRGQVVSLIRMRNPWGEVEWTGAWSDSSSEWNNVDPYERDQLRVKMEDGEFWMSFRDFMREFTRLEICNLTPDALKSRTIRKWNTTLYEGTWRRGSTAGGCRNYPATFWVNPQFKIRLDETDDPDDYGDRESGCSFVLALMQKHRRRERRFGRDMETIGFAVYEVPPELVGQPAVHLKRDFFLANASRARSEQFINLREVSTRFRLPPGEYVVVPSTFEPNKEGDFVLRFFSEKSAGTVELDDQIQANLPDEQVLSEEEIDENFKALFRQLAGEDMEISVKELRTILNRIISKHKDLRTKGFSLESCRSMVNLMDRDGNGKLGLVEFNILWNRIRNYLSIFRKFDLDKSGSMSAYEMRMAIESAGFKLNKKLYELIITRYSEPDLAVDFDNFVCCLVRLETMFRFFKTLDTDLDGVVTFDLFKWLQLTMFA
Assay: Inhibitory activity against human Calpain 1 isolated from erythrocytes
Format: cell-free

- Ki: 15 nM
SMILES: O=CC(Cc1ccccc1)NC(=O)c1ccccc1/C=C/c1cccc2ccccc12 (stereo unspecified)
